The numbers were not newly measured in patent US20070134273A1, “Composition and method for the treatment of carcinoma” (priority 2004, published 2007), which cites them from elsewhere.

The structures appear in SMILES notation. Like-named read-outs stand apart in the source and are kept apart here.

Data set [1] deals with peripheral blood mononuclear cells, monocytes, and dendritic cells. Conditions: in vitro and in vivo, versus imiquimod (Aldara R-837).
Data set [2] relates to bladder cancer.
The mark [3] stands for this setting: transurethral resection plus intravesical agent versus transurethral resection alone.

Regarding `CCOCc1nc2c(N)nc3ccccc3c2n1CC(C)(C)O` [Resiquimod, 4-amino-2-ethoxymethyl-α, α-dimethyl-1H-imidazo[4,5-c]quinoline-1-ethanol], in data set [1], the “potency in inducing cytokines relative to imiquimod” value is recorded as “about 100 times”. Turning to `COc1cccc2c1C(=O)c1c(O)c3c(c(O)c1C2=O)C[C@@](O)(C(=O)CO)C[C@@H]3O[C@H]1C[C@H](N)[C@H](O)[C@H](C)O1` [doxorubicin], in data set [2] (setting [3]), the “studies with a significant reduction in tumor progression” value is reported as 0 of 2 and the “studies with a significant reduction in tumor recurrences” value is listed as 2 of 4. Regarding `CO[C@@]12[C@H](COC(N)=O)C3=C(C(=O)C(C)=C(N)C3=O)N1C[C@@H]1N[C@@H]12` [mitomycin], in data set [2] (setting [3]), the “studies with a significant reduction in tumor progression” value is 0 of 2 and the “studies with a significant reduction in tumor recurrences” value is reported as 2 of 5. For `S=P(N1CC1)(N1CC1)N1CC1` [thiotepa], in data set [2] (in vivo), the “studies with a significant reduction in tumor progression” value was 0 of 3 and the “studies with a significant reduction in tumor recurrences” value is reported as 6 of 10.
